{"source": "patent US5192525A", "about": "(Board of Regents, The University of Texas System, priority 1991, dated 1993)", "key": {"[1]": {"test_system": "estrogen receptor-positive breast cancer", "conditions": "McCague; cited from earlier work"}, "[2]": {"molecular_target": "T1, estrogen receptor (Rattus norvegicus, UniProt P06211)", "T1 construct": "from tissue", "T1 sequence (P06211 1-600)": "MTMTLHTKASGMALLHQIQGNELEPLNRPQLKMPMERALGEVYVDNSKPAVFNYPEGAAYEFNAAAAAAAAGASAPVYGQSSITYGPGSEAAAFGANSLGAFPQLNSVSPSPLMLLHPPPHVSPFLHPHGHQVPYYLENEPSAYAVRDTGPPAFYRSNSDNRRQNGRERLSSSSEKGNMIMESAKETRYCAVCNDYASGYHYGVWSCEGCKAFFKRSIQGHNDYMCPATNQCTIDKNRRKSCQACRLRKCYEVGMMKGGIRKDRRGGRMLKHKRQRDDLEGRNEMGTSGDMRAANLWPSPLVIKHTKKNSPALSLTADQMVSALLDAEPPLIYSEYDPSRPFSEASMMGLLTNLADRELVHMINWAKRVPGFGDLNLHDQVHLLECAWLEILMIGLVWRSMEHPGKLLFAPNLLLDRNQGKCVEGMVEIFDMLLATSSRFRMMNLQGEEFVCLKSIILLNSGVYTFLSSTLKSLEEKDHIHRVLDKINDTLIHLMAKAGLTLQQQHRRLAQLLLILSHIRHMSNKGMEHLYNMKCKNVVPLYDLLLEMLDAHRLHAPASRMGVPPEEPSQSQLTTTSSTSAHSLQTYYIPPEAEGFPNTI", "assay": "Animal studies (imaging agents)", "assay_type": "in vivo"}, "[3]": {"molecular_target": "T2, estrogen receptor (Sus scrofa, UniProt Q29040)", "T2 construct": "uteri (90 gm) were obtained from immature domestic swine (15 kg); from tissue; host or cells: uterus cytosol (100,000 g supernatant, charcoal-treated) of immature domestic swine", "T2 sequence (Q29040 1-595)": "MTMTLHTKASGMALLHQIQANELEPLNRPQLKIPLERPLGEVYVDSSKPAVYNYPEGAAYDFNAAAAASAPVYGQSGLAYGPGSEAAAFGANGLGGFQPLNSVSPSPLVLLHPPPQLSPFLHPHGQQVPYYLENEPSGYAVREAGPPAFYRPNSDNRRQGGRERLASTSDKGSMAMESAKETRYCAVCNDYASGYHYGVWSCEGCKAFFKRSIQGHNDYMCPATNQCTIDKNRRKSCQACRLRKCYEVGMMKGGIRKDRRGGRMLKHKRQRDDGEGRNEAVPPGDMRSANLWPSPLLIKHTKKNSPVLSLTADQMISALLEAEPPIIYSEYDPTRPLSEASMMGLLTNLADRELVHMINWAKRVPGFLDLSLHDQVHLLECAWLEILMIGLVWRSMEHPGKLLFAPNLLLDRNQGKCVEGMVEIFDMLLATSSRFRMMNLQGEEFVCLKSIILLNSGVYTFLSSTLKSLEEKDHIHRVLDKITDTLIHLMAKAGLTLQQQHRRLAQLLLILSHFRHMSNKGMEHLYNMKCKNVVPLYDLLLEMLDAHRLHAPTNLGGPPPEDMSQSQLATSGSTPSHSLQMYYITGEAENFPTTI", "assay": "Estrogen receptor binding in pig uterus cytosol, displacement of [3H]estradiol", "experimental": "done at 4° C. […] The protein\nthree experiments. In each experiment, triplicate samples were tested.\n^2 IC50 : Concentration required to decrease the amount of bound\n^3 RBA: Relative binding affinity is the IC50 ratio between"}, "[4]": {"conditions": "literature; cited from earlier work"}, "[5]": {"conditions": "literature; cited from earlier work", "remark": "listed apart in the source"}, "[6]": {"conditions": "in vivo; cited from earlier work"}, "[7]": {"test_system": "progesterone receptor", "conditions": "in vivo; cited from earlier work"}}}
{"smiles": "CC/C(=C(\\c1ccc(I)cc1)c1ccc(OCCN(C)C)cc1)c1ccccc1", "note": "[Compound 4-iodo]", "values": [{"measurement": "potency in detecting estrogen receptor-positive breast cancer", "setting": "[1]", "value": "greater potency than tamoxifen"}]}
{"smiles": "CCN(CC)CCOc1ccc(/C(=C(/CCCBr)c2ccccc2)c2ccccc2)cc1", "note": "[Compound XI]", "values": [{"measurement": "results in animal studies", "setting": "[2]", "value": "produced the most superior results in animal studies"}, {"measurement": "estrogen receptor binding, result in words", "setting": "[3]; listed as Bromomethyl tamoxifen", "value": "binds to estrogen receptors with greater affinity than the other halogenated tamoxifen analogs tested"}, {"measurement": "estrogen receptor binding, result in words", "setting": "[3]; listed as bromomethyl-Tx analogs", "value": "bind to estrogen receptors greater than other halogenated tamoxifens tested with F, Cl, or I"}]}
{"smiles": "CC/C(=C(\\c1ccc(O)cc1)c1ccc(OCCN(C)C)cc1)c1ccccc1", "note": "[4-hydroxytamoxifen]", "values": [{"measurement": "activity in vivo versus tamoxifen", "setting": "[4]", "value": "less effective than tamoxifen in vivo"}, {"measurement": "anti-estrogen activity in vitro", "setting": "[5]", "value": "potent anti-estrogen in vitro"}, {"measurement": "ability to cross the cell membrane", "setting": "[6]", "value": "polarity reduces its ability to cross the cell membrane"}, {"measurement": "glucuronidation and excretion", "setting": "[6]", "value": "rapid glucuronidation of the hydroxyl group, followed by excretion"}]}
{"smiles": "CC[C@@H]1C[C@H]2[C@@H]3CCC4=CC(=O)CC[C@@H]4[C@H]3CC[C@]2(C)[C@H]1C(=O)C[18F]", "note": "[FENP, 21-[^18 F]fluoro-16-α-ethyl-19-norprogesterone]", "values": [{"measurement": "uterine target tissue uptake", "setting": "[7]", "value": "high specific uterine target tissue uptake"}]}
